Experimental data taken from patent publication US20220227765A1, “PYRIDO-INDOLE ANALOGUES AS GPX4 INHIBITORS” (Ferro Therapeutics, Inc., priority 2019, published 2022).
Values after ≈ are worked out from the molar mass of the structure shown. Read-outs that look alike come from different tables or passages of the source.

Assays:
[1] = Rat IV pharmacokinetics (2 mg/kg); format: in vivo; settings: male, SD, plasma; for clearance: read-out: Rat IV-PK CL; for AUC(0-t): read-out: Rat IV-PK AUC (0-t); for half-life: read-out: Rat IV-PK T1/2; for Vd: read-out: Rat IV-PK Vd
Excerpt: Institutional Animal Ethical Committee (IAEC) of Jubilant Biosys (IAEC/JDC/2019/188R (for Mice) and IAEC/JDC/2019/189R (for Rat) nominated by CPCSEA (Committee for the Purpose of Control and Supervision of Experiments on Animals) approved the mice and rat pharmacokinetic experiments. Male Balb/c mice (˜6-8 weeks old with body weight range of 22-25 g) and male SD rats (6-8 weeks old with body weight range of 200-250 g) were procured from Vivo Biotech, Hyderabad, India. Animals were quarantined in Jubilant Biosys Animal House for a period of 7 days with a 12:12 h light: dark cycles, and prior to the study the animals were stratified as per body weight.
B) Procedure for rat: Intravenous and oral pharmacokinetics study was done at a dose 2 and 10 mg/kg at dose volume of 2 and 10 mL/Kg. Serial blood sampling was done and at each time point (˜200 μL) were collected from retro-orbital plexus at 0.083 (Only for IV), 0.25, 0.5, 1, 2, 4, 8, 10 (only for PO) and 24 h. Blood samples were collected in tubes containing K2.EDTA as anticoagulant and centrifuged for 5 min at 10,000 rpm in a refrigerated centrifuge (Biofuge, Heraeus, Germany) maintained at 4° C. for plasma separation.
Group I (IV) received test compound intravenously by tail vein at 2 mg/Kg in solution formulation prepared using 30% Kolliphore EL in WFI; dose volume: 2 mL/Kg; strength: 1 mg/mL.
Blood concentration-time data of test compound was analyzed by non-compartmental method using Phoenix WinNonlin Version 8.1.

786-O = experiment: Cell proliferation (Alamar Blue) assay, 786-O; format: cell-based, human
Method in brief: (§1)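 Alamar Blue fluorescence (540 nm excitation, 590 nm emission, 1.5 h reagent incubation) measured viability after 24 h compound exposure at 37° C./5% CO2. Compounds spanned 10-0.0005 μM in 3-fold steps with 1% final DMSO, on cells pre-seeded 16-24 h at 5000/well. IC50 values were derived by variable-slope dose-response fitting.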

A431 = experiment: Cell proliferation (Alamar Blue) assay, A431; format: cell-based, human; settings: Homo sapiens, A-431, 24 h
Method in brief: as §1

Human blood stability = format: in vitro ADME
SJSA-1 = experiment: Cell proliferation (Alamar Blue) assay, SJSA-1; format: cell-based, human
Method in brief: as §1

[2] = Kinetic solubility (PBS, pH 7.4); format: physicochemical; settings: aqueous buffer, kinetic from dmso stock
[3] = Mouse plasma protein % unbound (ultracentrifuge method); format: in vitro ADME; settings: for fraction unbound at 4 h: mouse, plasma; for Mouse Plasma Protein % Unbound (Ultracentrifuge method, 4 h at 37° C.): Table B-6
[4] = CD-1 Mouse Whole Blood Stability Assay; format: in vitro ADME; settings: incubation at 37° C.
[5] = Equilibrium solubility at different pHs and with SBECD; format: physicochemical; settings: thermodynamic from solid
[6] = Human hepatocyte metabolic stability; format: in vitro ADME; settings: for half-life / hepatocyte CLint: human hepatocytes; for half-life: read-out: human hepatocytes T1/2; for hepatocyte CLint: read-out: human hepatocytes h Clintr (μL/min/10^6 cells)
[7] = Rat hepatocyte metabolic stability; format: in vitro ADME; settings: for half-life / hepatocyte CLint: rat hepatocytes; for half-life: read-out: rat hepatocytes T1/2; for hepatocyte CLint: read-out: rat hepatocytes h Clintr (μL/min/10^6 cells)
[8] = Homo sapiens, 786-0, 24 h, Table B-3, 786-O cells
[9] = Homo sapiens, SJSA-1, 24 h, Table B-3, head prints SJSB-1, 24 h, read-out: IC50 (μM) SJSB-1
[10] = aqueous buffer, pH 3.0 PBS buffer, read-out: Eq. solubility pH 3.0 PBS buffer
[11] = aqueous with cosolvent or surfactant or cyclodextrin, 20% SBECD (sulfobutyl ether cyclodextrin), read-out: Eq. solubility 20% SBECD

SMILES | IC50 (786-O; [8]) | IC50 (A431; Table B-3, A431 cells) | IC50 (SJSA-1; [9]) | solubility kinetic ([2]; Table B-4) | CD-1 Mouse Whole Blood Stability % Remaining ([4]; Table B-6, 0 min) | CD-1 Mouse Whole Blood Stability % Remaining ([4]; Table B-6, 30 min) | CD-1 Mouse Whole Blood Stability % Remaining ([4]; Table B-6, 60 min) | Mouse Plasma Protein % Unbound (Ultracentrifuge method, 4 h at 37° C.) [3] | further results
C#CC(=O)N1[C@@H](CCCC)Cc2c([nH]c3c(F)cc(F)cc23)[C@@H]1c1cncs1 [Compound B-23] | 0.507 µM | > 10 µM | 0.431 µM |  | 100.0% | 4.0% | 0.5% | Not stable | 
C#CC(=O)N1[C@@H](CCCC)Cc2c([nH]c3c(F)cc(F)cc23)[C@@H]1C1CCNCC1.Cl [Compound B-26] | 0.177 µM | 7.5 µM | 0.08 µM |  | 100.0% | 44.7% | 26.7% |  | fraction unbound at 4 h ([3]; Table B-6, 4 h at 37° C.): 0.061
C#CC(=O)N1[C@@H](CCCC)Cc2c([nH]c3c(F)cc(F)cc23)[C@@H]1c1ccc(C2COC2)cc1 [Compound B-29] | 0.034 µM | > 10 µM | 0.037 µM |  | 100.0% | 18.0% | 3.9% | Not stable | 
C#CC(=O)N1[C@@H](CCCC)Cc2c([nH]c3c(F)cc(F)cc23)[C@@H]1c1ccnn1C [Compound B-34] | 0.041 µM | 7.6 µM | 0.074 µM |  | 100.0% | 9.4% | 1.1% | Not stable | solubility [5, 10]: < 1 µg/mL; solubility [5, 11]: > 1010 µg/mL; solubility kinetic ([2]; Table B-7): 11 µM (≈ 4.36 µg/mL)
C[C@H]1Cc2c([nH]c3ccccc23)[C@](C)(c2ccc(F)cc2)N1C(=O)CCl [Compound C-38] |  |  |  |  |  |  |  |  | IC50 (786-O; Table C-3, 786-O cells, 24 h): 0.437 µM; IC50 (A431; Table C-3, A431 cells): 2.95 µM; fraction unbound at 4 h ([3]; Table C-4, 4 h at 37° C.): 0.105; IC50 (SJSA-1; Table C-3, SJSA-1 cells, 24 h, read-out: IC50 (μM) SJSA-1): 0.332 µM; CD-1 Mouse Whole Blood Stability % Remaining ([4]; Table C-4, 0 min): 100.0%; CD-1 Mouse Whole Blood Stability % Remaining ([4]; Table C-4, 30 min): 74.4%; CD-1 Mouse Whole Blood Stability % Remaining ([4]; Table C-4, 60 min): 61.0%

Second part, led by results:

IC50 (786-O; [8]) | IC50 (A431; Table B-3, A431 cells) | IC50 (SJSA-1; [9]) | solubility kinetic ([2]; Table B-4) | CD-1 Mouse Whole Blood Stability % Remaining ([4]; Table B-6, 0 min) | CD-1 Mouse Whole Blood Stability % Remaining ([4]; Table B-6, 30 min) | CD-1 Mouse Whole Blood Stability % Remaining ([4]; Table B-6, 60 min) | Mouse Plasma Protein % Unbound (Ultracentrifuge method, 4 h at 37° C.) [3] | SMILES | further results
0.009 µM | 4.7 µM | 0.018 µM | 4 µM (≈ 1.83 µg/mL) |  |  |  |  | C#CC(=O)N1[C@@H](CCCC)Cc2c([nH]c3ccccc23)[C@@H]1c1ccc(C(=O)NCCOC)cc1 [Compound B-3, 4-((1S,3S)-3-butyl-2-propioloyl-2,3,4,9-tetrahydro-1H-pyrido[3,4-b]indol-1-yl)-N-(2-methoxyethyl)benzamide] | clearance [1]: 348 mL/min/kg; human blood stability % remaining (Human blood stability; 15 min): 90%_15; human blood stability % remaining (Human blood stability; 30 min): 55%_30; human blood stability % remaining (Human blood stability; 45 min): 36%_45; human blood stability % remaining (Human blood stability; 60 min): 22%_60; human blood stability % remaining (Human blood stability; 120 min): 1.5%_120
0.031 µM | 5.3 µM | 0.047 µM |  | 100.0% | 70.3% | 55.0% |  | C#CC(=O)N1[C@@H](CCCC)Cc2c([nH]c3c(F)cc(F)cc23)[C@@H]1C12CC(N)(C1)C2.Cl [Compound B-22] | fraction unbound at 4 h ([3]; Table B-6, 4 h at 37° C.): 0.037
0.005 µM | 2 µM | 0.005 µM | < 1 µM | 100.0% | 78.0% | 72.7% |  | CCCC[C@H]1Cc2c([nH]c3c(F)cc(F)cc23)[C@H](c2ccc(N3CCN(C)CC3)c(C#N)c2)N1C(=O)CCl [Compound B-27] | fraction unbound at 4 h ([3]; Table B-6, 4 h at 37° C.): 0.078; human blood stability % remaining (Human blood stability; 15 min): 38%_15; human blood stability % remaining (Human blood stability; 30 min): 4%_30; human blood stability % remaining (Human blood stability; 45 min): 1%_45; human blood stability % remaining (Human blood stability; 60 min): 0%_60; human blood stability % remaining (Human blood stability; 120 min): 0%_120
0.03 µM | > 10 µM | 0.052 µM |  | 100.0% | 1.9% | 0.5% | Not stable | C#CC(=O)N1[C@@H](CCCC)Cc2c([nH]c3c(F)cc(F)cc23)[C@@H]1c1cccnc1 [Compound B-30] | solubility ([5]; aqueous buffer, pH 3.0, read-out: Eq. solubility pH 3.0): 700 µg/mL (≈ 1780 µM); solubility [5, 10]: 490 µg/mL (≈ 1250 µM); solubility [5, 11]: 240 µg/mL (≈ 610 µM); solubility kinetic ([2]; Table B-7): < 1 µM
0.001 µM | 6.7 µM | 0.001 µM | < 1 µM |  |  |  |  | O=C(CCl)N1[C@@H](CC2CC2)Cc2c([nH]c3ccccc23)[C@@H]1c1ccc(NC23CC4CC(CC(C4)C2)C3)cc1 [Compound B-36] | AUC(0-t) [1]: 431 ng·h/mL; clearance [1]: 87 mL/min/kg; half-life [1]: 30 min; Vd [1]: 3.5 L/kg; human hepatocytes extr. Ratio [6]: 0.13; human hepatocytes % met @ 180 min [6]: 3.5%; half-life [6]: 2460 min; hepatocyte CLint [6]: 1.1 µL/min/1e6 cells; rat hepatocytes extr. Ratio [7]: 0.7; rat hepatocytes % met @ 180 min [7]: 72%; half-life [7]: 107 min; hepatocyte CLint [7]: 26 µL/min/1e6 cells; human blood stability % remaining (Human blood stability; 15 min): ~100%_15; human blood stability % remaining (Human blood stability; 30 min): 96%_30; human blood stability % remaining (Human blood stability; 45 min): 82%_45; human blood stability % remaining (Human blood stability; 60 min): 77%_60; human blood stability % remaining (Human blood stability; 120 min): 51%_120
0.001 µM | 4.6 µM | 0.004 µM | < 1 µM |  |  |  |  | C#CC(=O)N1[C@@H](CC2CC2)Cc2c([nH]c3ccccc23)[C@@H]1c1ccc(NC23CC4CC(CC(C4)C2)C3)cc1 [Compound B-37] | AUC(0-t) [1]: 346 ng·h/mL; clearance [1]: 115 mL/min/kg; half-life [1]: 198 min; Vd [1]: 32 L/kg; human hepatocytes extr. Ratio [6]: 0.58; human hepatocytes % met @ 180 min [6]: 38%; half-life [6]: 270 min; hepatocyte CLint [6]: 10 µL/min/1e6 cells; rat hepatocytes extr. Ratio [7]: 0.64; rat hepatocytes % met @ 180 min [7]: 74%; half-life [7]: 137 min; hepatocyte CLint [7]: 20 µL/min/1e6 cells
